{"source": "patent US20060173066A1", "about": "“Remedy for diabetes” (Kyowa Hakko Kogyo Co., Ltd., priority 2003, published 2006)", "format_in_all_cases": "in vivo", "key": {"[1]": {"test_system": "GK/Jcl rats of a type 2 diabetic model", "test": "Example 4: blood-sugar level after single oral administration in rats", "conditions": "1,000 mg/kg B.W. oral", "protocol": "GK/Jcl rats (Clea Japan, Inc; male; nine weeks age) (12 mice) of a type 2 diabetic model were divided into two groups each comprising six mice and named group 1 and group 2.\nFive ml/kg B.W. of a solvent (0.5% (w/v) methyl cellulose #400) was orally administered to the rats of the group 1. A 200 mg/ml solution of the hydroxyproline in the same solvent was orally administered to the rats of the group 2 so as to make the amount of administration 1,000 mg/kg B.W. Blood was collected from tail vein upon administration of the solvent or the hydroxyproline solution (0 minute) and 30 minutes, 60 minutes and 120 minutes after the administration and blood-sugar levels were measured by a Medisafe Reader GR-101. The value was shown by mean value±standard error (n=6) and statistic ratio of risk (p value) was determined by a t-test."}, "[2]": {"test_system": "KK-Ay/Ta Jcl mice of a type 2 diabetic model", "test": "Example 1: serum-insulin level after 18 hours fasting in mice fed CE-2 feed with 1% by weight of test substance", "excerpt": "(§1) KK-Ay/Ta Jcl mice (Clea Japan, Inc.; male; six weeks age) (15 mice) of a type 2 diabetic model were divided into three groups each comprising five mice and named group 1 to group 3.\n(§2) The mice of the groups 1 to 3 were made free to take feed and water. A commercially available feed CE-2 (manufactured by Clea Japan, Inc.) was ingested to the mice of group 1. CE-2 to which 1% by weight of trans-4-hydroxy-L-proline (manufactured by Kyowa Hakko Kogyo; hereinafter, abbreviated as hydroxyproline) was added was ingested to the mice of group 2. CE-2 to which 1% by weight of trans-N-acetyl-4-hydroxy-L-proline (manufactured by Kyowa Hakko Kogyo; hereinafter, abbreviated as N-acetylhydroxyproline) was added was ingested to the mice of group 3.\n(§3) On the initial day of the test and on the 17th day thereafter, blood was collected from tail vein and blood-sugar level upon non-fasting was measured by a Medisafe Reader GR-101 (manufactured by Thermo Co.). The mice were fasted for 18 hours during the 17th day to the 18th day after the start of the test and whole blood was collected from descending vena cava to prepare serum. The serum-insulin level was measured by a Levi Insulin Kit Mouse-T (manufactured by Shibayagi). The value was shown by mean value±standard error (n=5) and statistic ratio of risk (p value) was determined by a t-test. With regard to the ingested amounts during the test periods, there was no significant difference among the groups 1 to 3."}, "[3]": {"test_system": "GK/Jcl rats of a type 2 diabetic model", "test": "Example 5: blood-sugar level after oral glucose load in fasted rats", "conditions": "for Blood-Sugar Level, 30 min: 30 minutes after glucose 2 g/kg; for Blood-Sugar Level, 30 min / Blood-Sugar Level, −30 min / Blood-Sugar Level, 60 min / Blood-Sugar Level, 120 min / Blood-Sugar Level, 0 min: n=6; for Blood-Sugar Level, −30 min: 30 minutes before glucose 2 g/kg (baseline, at dosing), mean ± standard error; for Blood-Sugar Level, 60 min: 60 minutes after glucose 2 g/kg; for Blood-Sugar Level, 120 min: 120 minutes after glucose 2 g/kg; for Blood-Sugar Level, 0 min: upon glucose administration 2 g/kg", "protocol": "GK/Jcl rats (Clea Japan, Inc.; male; nine weeks age) (18 mice) of a type 2 diabetic model were divided into three groups each comprising six mice and named groups 1 to 3.\nAfter fasting for 18 hours, 5 ml/kg B.W. of a solvent (0.5% (w/v) methyl cellulose #400) was orally administered to the rats of the group 1. A 60 mg/ml solution of the hydroxyproline in the same solvent was orally administered to the rats of the group 2 so as to make the amount of administration 300 mg/kg B.W. A 200 mg/ml solution of the hydroxyproline in the same solvent was orally administered to the rats of the group 3 so as to make the amount of administration 1,000 mg/kg B.W. After 30 minutes from the oral administration, 2 g/kg B.W. of a 20% (w/v) aqueous solution of glucose was orally administered to the mice of the groups 1 to 3 to load with sugar. Blood was collected from tail vein 30 minutes before the administration of the aqueous glucose solution (−30 minutes), upon the administration (0 minute) and 30 minutes, 60 minutes and 120 minutes after the administration and blood-sugar levels were measured by a Medisafe Reader GR-101.\nThe value was shown by mean value±standard error (n=6) and statistic ratio of risk (p value) between the groups 1 and 2 and that between the groups 1 and 3 was determined by a one-way layout dispersion analysis and by a Dunnett test."}, "[4]": {"test_system": "KK-Ay/Ta Jcl mice of a type 2 diabetic model", "test": "Example 1: non-fasting blood-sugar level in mice fed CE-2 feed with 1% by weight of test substance", "excerpt": "as §1, §2, §3"}}}
{"compound": "O=C(O)[C@@H]1C[C@@H](O)CN1", "note": "[hydroxyproline, trans-4-hydroxy-L-proline]", "values": [{"measurement": "antidiabetic action (conclusion from Table 6)", "setting": "[1]", "result": "antidiabetic action"}, {"measurement": "Blood-Sugar Level, 30 min", "setting": "[1]; 30 minutes after administration, mean ± standard error, n=6", "result": "220.3 ± 13.8", "unit": "mg/dL"}, {"measurement": "Blood-Sugar Level, 60 min", "setting": "[1]; 60 minutes after administration, mean ± standard error, n=6", "result": "189.5 ± 10.9", "unit": "mg/dL"}, {"measurement": "Blood-Sugar Level, 120 min", "setting": "[1]; 120 minutes after administration, mean ± standard error, n=6", "result": "156.0 ± 6.8", "unit": "mg/dL"}, {"measurement": "Blood-Sugar Level, 0 min", "setting": "[1]; upon administration (baseline), mean ± standard error, n=6", "result": "189.2 ± 8.4", "unit": "mg/dL"}, {"measurement": "antidiabetic action by improving insulin resistance (conclusion from Tables 1 and 2)", "setting": "[2]", "result": "show an antidiabetic action by improving the insulin resistance"}, {"measurement": "Serum-Insulin Level", "setting": "[2]; 18th day after 18 hours fasting, mean ± standard error, n=5", "result": "1.01 ± 0.08", "unit": "ng/mL"}, {"measurement": "Blood-Sugar Level, 30 min", "setting": "[3]; 300 mg/kg B.W. oral", "result": "269.5 ± 15.3", "unit": "mg/dL"}, {"measurement": "Blood-Sugar Level, −30 min", "setting": "[3]; 300 mg/kg B.W. oral", "result": "113.3 ± 2.7", "unit": "mg/dL"}, {"measurement": "Blood-Sugar Level, 60 min", "setting": "[3]; 300 mg/kg B.W. oral", "result": "298.2 ± 7.5", "unit": "mg/dL"}, {"measurement": "Blood-Sugar Level, 120 min", "setting": "[3]; 300 mg/kg B.W. oral", "result": "207.5 ± 6.3", "unit": "mg/dL"}, {"measurement": "Blood-Sugar Level, 0 min", "setting": "[3]; 300 mg/kg B.W. oral", "result": "144.2 ± 7.2", "unit": "mg/dL"}, {"measurement": "Blood-Sugar Level, 30 min", "setting": "[3]; 1,000 mg/kg B.W. oral", "result": "226.2 ± 3.0", "unit": "mg/dL"}, {"measurement": "Blood-Sugar Level, −30 min", "setting": "[3]; 1,000 mg/kg B.W. oral", "result": "112.2 ± 3.3", "unit": "mg/dL"}, {"measurement": "Blood-Sugar Level, 60 min", "setting": "[3]; 1,000 mg/kg B.W. oral", "result": "247.3 ± 4.4", "unit": "mg/dL"}, {"measurement": "Blood-Sugar Level, 120 min", "setting": "[3]; 1,000 mg/kg B.W. oral", "result": "181.2 ± 7.3", "unit": "mg/dL"}, {"measurement": "Blood-Sugar Level, 0 min", "setting": "[3]; 1,000 mg/kg B.W. oral", "result": "137.0 ± 6.6", "unit": "mg/dL"}, {"measurement": "antidiabetic action (conclusion from Table 7)", "setting": "[3]; 300 and 1,000 mg/kg B.W. oral, glucose load", "result": "dose-dependent antidiabetic-action"}, {"measurement": "antidiabetic action (conclusion from Table 1)", "setting": "[4]; 17 days", "result": "antidiabetic action"}, {"measurement": "Blood-Sugar Level, 17th Day of the Test", "setting": "[4]; non-fasting, tail vein blood, 17th day, mean ± standard error, n=5", "result": "260.4 ± 10.8", "unit": "mg/dL"}, {"measurement": "Blood-Sugar Level, Initial Day of the Test", "setting": "[4]; non-fasting, tail vein blood, initial day (baseline), mean ± standard error, n=5", "result": "243.0 ± 12.2", "unit": "mg/dL"}]}
